According to patent publication US11273167B2, “Compositions and methods for modulating ABHD2 activity” (The Regents of the University of California, priority 2015, dated 2022):
“Also recorded” adds a separate entry of the source. Read-outs that look alike come from different tables or passages of the source.

Legend:
[1] = molecular target: human CatSper channel (Homo sapiens, UniProt Q7RTX7+Q86XQ3+Q8NEC5+Q96P56); test: Whole-cell patch-clamp recording of CatSper currents (ICatSper) from human spermatozoa; type: cell-based
human CatSper channel (Homo sapiens, UniProt Q7RTX7+Q86XQ3+Q8NEC5+Q96P56), sequence (Q8NEC5 whole entry): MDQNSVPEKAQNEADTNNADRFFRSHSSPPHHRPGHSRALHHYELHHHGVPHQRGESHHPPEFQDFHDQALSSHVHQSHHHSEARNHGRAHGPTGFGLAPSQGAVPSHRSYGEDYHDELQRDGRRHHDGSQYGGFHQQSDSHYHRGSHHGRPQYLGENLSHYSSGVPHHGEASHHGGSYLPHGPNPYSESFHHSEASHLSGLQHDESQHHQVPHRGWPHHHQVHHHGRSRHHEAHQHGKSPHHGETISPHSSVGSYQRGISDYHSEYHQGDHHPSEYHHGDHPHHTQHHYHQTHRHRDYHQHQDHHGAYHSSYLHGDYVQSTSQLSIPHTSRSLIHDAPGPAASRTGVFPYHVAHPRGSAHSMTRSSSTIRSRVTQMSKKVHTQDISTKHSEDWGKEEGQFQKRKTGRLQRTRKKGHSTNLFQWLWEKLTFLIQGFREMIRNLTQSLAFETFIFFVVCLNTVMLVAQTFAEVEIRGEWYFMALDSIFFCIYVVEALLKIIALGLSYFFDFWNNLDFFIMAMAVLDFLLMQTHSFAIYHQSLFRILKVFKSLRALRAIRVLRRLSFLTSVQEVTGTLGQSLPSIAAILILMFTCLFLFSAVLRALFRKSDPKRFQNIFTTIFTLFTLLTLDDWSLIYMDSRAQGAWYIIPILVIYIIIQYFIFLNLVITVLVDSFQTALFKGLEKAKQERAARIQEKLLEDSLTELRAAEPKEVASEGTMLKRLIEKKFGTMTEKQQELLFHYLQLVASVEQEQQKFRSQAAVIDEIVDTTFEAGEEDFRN
human CatSper channel (Homo sapiens, UniProt Q7RTX7+Q86XQ3+Q8NEC5+Q96P56), sequence (Q86XQ3 whole entry): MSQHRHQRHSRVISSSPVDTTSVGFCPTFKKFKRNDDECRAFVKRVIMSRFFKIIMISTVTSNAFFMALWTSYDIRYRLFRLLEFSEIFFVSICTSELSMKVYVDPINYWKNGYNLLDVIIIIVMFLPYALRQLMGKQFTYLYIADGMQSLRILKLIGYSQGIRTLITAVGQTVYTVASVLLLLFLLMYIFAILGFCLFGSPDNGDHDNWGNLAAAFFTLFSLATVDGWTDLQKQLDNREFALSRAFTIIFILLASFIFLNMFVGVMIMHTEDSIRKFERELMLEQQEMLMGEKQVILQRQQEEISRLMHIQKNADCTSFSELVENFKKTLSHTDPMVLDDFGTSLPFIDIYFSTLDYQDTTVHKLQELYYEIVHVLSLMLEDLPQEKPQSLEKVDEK
human CatSper channel (Homo sapiens, UniProt Q7RTX7+Q86XQ3+Q8NEC5+Q96P56), sequence (Q96P56 whole entry): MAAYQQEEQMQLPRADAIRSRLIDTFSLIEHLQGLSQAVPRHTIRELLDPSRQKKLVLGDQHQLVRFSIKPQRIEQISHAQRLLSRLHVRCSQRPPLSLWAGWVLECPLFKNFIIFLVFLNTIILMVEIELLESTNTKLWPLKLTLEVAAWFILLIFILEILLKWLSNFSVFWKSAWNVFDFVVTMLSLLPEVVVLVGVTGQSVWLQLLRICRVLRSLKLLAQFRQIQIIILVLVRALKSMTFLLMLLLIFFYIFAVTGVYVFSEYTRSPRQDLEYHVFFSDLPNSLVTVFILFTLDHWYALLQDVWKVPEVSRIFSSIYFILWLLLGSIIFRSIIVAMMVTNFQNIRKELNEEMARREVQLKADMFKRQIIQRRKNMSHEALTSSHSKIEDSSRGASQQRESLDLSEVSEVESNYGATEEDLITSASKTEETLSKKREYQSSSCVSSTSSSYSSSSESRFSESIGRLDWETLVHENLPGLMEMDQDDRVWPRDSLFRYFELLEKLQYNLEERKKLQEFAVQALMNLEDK
human CatSper channel (Homo sapiens, UniProt Q7RTX7+Q86XQ3+Q8NEC5+Q96P56), sequence (Q7RTX7 whole entry): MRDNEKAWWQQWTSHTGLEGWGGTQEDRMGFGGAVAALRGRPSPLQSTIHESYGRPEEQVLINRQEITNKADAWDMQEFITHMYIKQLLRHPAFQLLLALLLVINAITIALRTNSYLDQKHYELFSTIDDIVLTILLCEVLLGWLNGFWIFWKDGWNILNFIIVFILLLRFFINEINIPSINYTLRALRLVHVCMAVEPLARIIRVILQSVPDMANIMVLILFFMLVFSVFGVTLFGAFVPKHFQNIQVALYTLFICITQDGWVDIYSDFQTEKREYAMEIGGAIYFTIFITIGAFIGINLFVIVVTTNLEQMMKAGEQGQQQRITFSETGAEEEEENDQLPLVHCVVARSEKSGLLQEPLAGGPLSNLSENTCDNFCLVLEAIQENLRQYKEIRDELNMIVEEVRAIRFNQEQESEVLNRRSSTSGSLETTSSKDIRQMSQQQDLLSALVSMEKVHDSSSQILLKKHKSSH
Method: (§1) All CatSper recordings was performed as described in (Lishko et al., 2013; Lishko et al., 2011). Briefly, gigaohm seal between the patch pipette and human spermatozoon was formed at the cytoplasmic droplet. Spermatozoa were patched either at the cytoplasmic droplet or, if the cytoplasmic droplet was inconspicuous, at the neck region. Seals were formed in high saline (HS) solution containing: 130 mM NaCl, 5 mM KCl, 1 mM MgSO4, 2 mM CaCl2, 5 mM glucose, 1 mM sodium pyruvate, 10 mM lactic acid, 20 mM HEPES, pH 7.4 adjusted with NaOH, 320 mOsm/L. Transition into the whole-cell mode was performed by applying short voltage pulses. Access resistance was 25-40 M. Cells were stimulated every 5 s. Data were sampled at 2-5 kHz and filtered at 1 kHz. Pipettes (11-17 MΩ) for whole-cell patch-clamp recordings of monovalent CatSper currents were filled with (in mM): 130 Cs-methanesulfonate, 70 HEPES, 3 EGTA, 2 EDTA, 0.5 TrisHCl, pH 7.4 adjusted with CsOH. Bath divalent free (DVF) solution for recording of monovalent CatSper currents contained (in mM): 140 Cs-methanesulfonate, 40 HEPES, 1 EDTA, pH 7.4 adjusted with CsOH. HEPES was substituted for MES in the event when acidic extracellular pH was used. HS solution was used to record baseline current while measuring monovalent CatSper currents (Ca^2+ in HS solution inhibits monovalent CatSper currents and causes Ca^2+-dependent inactivation of CatSper channels). Osmolarities of above mentioned solutions were approximately 321 mOsm/L and 335 mOsm/L for bath and pipette solutions, respectively. All electrophysiology experiments were performed at ambient temperature. IcatSper were elicited by voltage ramps from a holding potential of 0 mV. Ramps were applied from −80 mV to +80 mV. Data were analysed with Origin 7.0 and Clampfit 9.2. Statistical data were calculated as the mean±S.E.M., and (n) indicates number of experiments. To determine IcatSper inactivation rate current densities extracted from voltage ramps and acquired at +80 pA were plotted against time. The data were fitted with Boltzmann equation y=1/(1+exp((x−t)/dx)) and mean ti numbers were determined from (n) independent experiments. Statistical significance (t-test) is indicated by (**, p≤0.01 and *, p≤0.05).
(§2) Data were analyzed with Origin 7.0 and Clampfit 9.2. Statistical data were calculated and represented everywhere in text as the mean±S.E.M., and (n) indicates number of experiments. To determine ICatSper inactivation rate current densities extracted from voltage ramps and acquired at +80 pA were plotted against time. The data were fitted with Boltzmann equation y=1/[1+exp((x−τ)/dx)] and mean τ numbers were determined from (n) independent experiments. Hill equation was used to build dose-response curve: y=Vmax*x^n/(k^n+x^n). where n defines Hill slope factor, k defines IC50, and Vmax is close to 100% inhibition. Statistical significance (t test) is indicated by (****P<0.0001, ***P<0.001, **P<0.005 and *P<0.05).

[2] = tested on: human CatSper channel; test: as above; type: cell-based; conditions: for effect on P4-dependent activation of CatSper (CatSper P4 sensitivity): human spermatozoa treated with the agent, then P4; for activation of CatSper current (ICatSper): whole-cell patch clamp
Method: as §1, §2

[3] = molecular target: T1, mouse CatSper (Mus musculus, UniProt A2ARP9+Q80W99+Q8BVN3+Q91ZR5); test: Whole-cell patch-clamp recording of ICatSper from mouse spermatozoa; type: cell-based
T1 construct: Mouse spermatozoa were isolated from cauda epididymis; endogenous in cells; host or cells: mouse cauda epididymal spermatozoa

[4] = molecular target: T2, ABHD2 (Homo sapiens, UniProt P08910); test: P4* UV cross-linking and streptavidin pull-down from human sperm, ABHD2 western blot; type: binding; conditions: 250 nM P4*
T2 construct: endogenous in cells; host or cells: human spermatozoa
T2 sequence (P08910 1-425): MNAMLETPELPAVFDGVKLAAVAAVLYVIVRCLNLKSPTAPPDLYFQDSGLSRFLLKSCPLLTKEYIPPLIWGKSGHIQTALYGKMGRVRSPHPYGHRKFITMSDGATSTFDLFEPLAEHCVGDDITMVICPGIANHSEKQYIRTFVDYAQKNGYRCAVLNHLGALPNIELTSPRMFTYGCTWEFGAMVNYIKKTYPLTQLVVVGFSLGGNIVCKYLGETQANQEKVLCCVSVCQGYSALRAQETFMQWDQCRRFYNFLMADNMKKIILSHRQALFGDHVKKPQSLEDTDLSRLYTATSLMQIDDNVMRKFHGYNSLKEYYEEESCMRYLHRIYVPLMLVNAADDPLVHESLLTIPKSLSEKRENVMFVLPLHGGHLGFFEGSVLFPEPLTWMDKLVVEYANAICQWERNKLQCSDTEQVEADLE
Method: After collection, sperm cells were treated with 0.5 units (U) of PI-PLC ([…]; Life Technologies, Carlsbad, Calif.) and incubated at 37° C. for an hour. […] Lysates were added to streptavidin coated magnetic beads (65001; Life Technologies, Carlsbad, Calif.) on ice for another thirty minutes with gentle agitation. Bound proteins were eluted by boiling in Laemmli Sample Buffer in the presence of beta-mercaptoethanol and subjected to SDS-polyacrylamide gel electrophoresis. […] Bands were excised and subjected to in-gel trypsinization after which peptides were extracted and dried for use in proteomic analysis. Protease inhibitors were used throughout the following procedure. Highly motile sperm swim-up fraction was subjected to osmotic shock by a 5 min incubation in 0.5×HS solution, addition of 10 mM EDTA and 10 mM DTT for 10 min, and sonication in a water bath at 25° C. for 5 min. Osmolarity was adjusted by addition of 10×PBS. 5× Laemmli sample buffer was added to a final 1× concentration and the DTT concentration adjusted to 20 mM. An additional 5 min sonication and boiling at 100° C. for 5 min were performed. Total crude cell lysate was loaded onto a 4-20% gradient Tris-HCl CriterionTM SDS-PAGE gel (BioRad). […] Following transfer to PVDF membranes, blots were blocked in 0.1% PBS-Tween20 with 3% IgG free BSA for 15 min and incubated in primary antibodies overnight at 4° C. […]

[5] = tested on: human CatSper channel; conditions: shown previously (Lishko et al., 2011); cited from earlier work
[6] = tested on: mouse spermatozoa; test: Acrosome exocytosis assessment in live capacitated mouse sperm; type: cell-based; conditions: 3 μM P4, 3 μM AA
[7] = human spermatozoa, extracellular application

CCCCC/C=C\C/C=C\C/C=C\C/C=C\CCCC(=O)OC(CO)CO [2-AG, 2-arachidonoylglycerol]
inhibition of ICatSper on intracellular application [1]: could not mimic this effect
percent inhibition of CatSper outward current [1]: 92.4±3.5%
rate of CatSper inactivation, decline in current amplitude τ [1]: 1.6 ± 0.3 min
IC50 ([1]; read-out: median inhibitory concentration (IC50) of ICatSper, inward currents): 670 nM
IC50 ([1]; read-out: median inhibitory concentration (IC50) of ICatSper, outward currents): 350 nM
effect on nascent/basal CatSper current [2]: inhibited ICatSper
inhibition of mouse ICatSper ([3]; compared with human ICatSper): inhibits mouse ICatSper but with less efficacy than it inhibits human ICatSper
percent inhibition against the outward current ([3]; mouse CatSper, n=5): 73.9±4.4%

O=C(Nc1ccccc1)N1CCC(Cc2cnc3ccccc3c2)CC1 [PF750]
effect on P4-dependent activation of CatSper (CatSper P4 sensitivity) [2]: did not change CatSper sensitivity to P4

CCCCC/C=C\C/C=C\C/C=C\C/C=C\CCCC(=O)OCC(O)CO (centres unmarked) [1-AG, 1-arachidonoylglycerol]
percent inhibition of CatSper outward current [1]: 85.0±0.5%
rate of CatSper inactivation, decline in current amplitude τ [1]: 2.7 ± 0.2 min
effect on nascent/basal CatSper current [2]: inhibited ICatSper

estrogen
ABHD2 in P4* pull-down in the presence of competing steroid [4]: ABHD2 presence in pull-down experiments
interference with P4 activation of CatSper [5]: do not interfere with P4 activation of CatSper

CCCCC/C=C\C/C=C\C/C=C\C/C=C\CCCC(=O)NCCO [AEA, anandamide]
effect on nascent/basal CatSper current [2]: does not change nascent CatSper behaviour; also recorded: had no effect

OCC(O)CO [glycerol]
effect on P4-dependent activation of CatSper (CatSper P4 sensitivity) [2]: did not ablate ICatSper or its regulation by P4
effect on nascent/basal CatSper current [2, 7]: did not ablate ICatSper

CC(=O)[C@@]1(O)CC[C@H]2[C@@H]3CCC4=CC(=O)CC[C@]4(C)[C@H]3CC[C@@]21C [17-OH—P]
activation of CatSper current (ICatSper) ([2]; human spermatozoa): reversibly activated

lysophosphatidylethanolamine [lyso-PE]
effect on nascent/basal CatSper current [2, 7]: Neither lysophosphatidylinositol (lyso-PI) nor lysophosphatidylethanolamine (lyso-PE) affected nascent CatSper current

lysophosphatidylinositol [lyso-PI]
effect on nascent/basal CatSper current [2, 7]: Neither lysophosphatidylinositol (lyso-PI) nor lysophosphatidylethanolamine (lyso-PE) affected nascent CatSper current

CCCCC/C=C\C/C=C\C/C=C\C/C=C\CCCC(=O)O [AA, arachidonic acid]
regulation of CatSper by arachidonic acid ([2]; ICatSper at +80 mV and −80 mV over time): Dual Regulator of CatSper
stimulation of mouse acrosome reaction (AR) [6]: stimulate mouse AR to similar levels

CCCCC[C@H](O)/C=C/[C@H]1[C@H](O)CC(=O)[C@@H]1CCCCCCC(=O)O [PGE1, prostaglandin E1]
activation of CatSper current (ICatSper) ([2]; human spermatozoa): stimulated CatSper activation
